In patent US6342079B1, “Primary intermediate for use in oxidative hair dyeing” (Bristol-Myers Squibb Company, priority 2000, dated 2002):

How the values were obtained:
Solubility in water = type: physicochemical
[1] = Storage stability of the free base; type: physicochemical; settings: for long term storage stability: extended storage
[2] = as described in U.S. Pat. Nos. 5,599,353 and 5,538,516; cited from earlier work

SMILES | solubility in water (Solubility in water) | stability in free base form compared with 2-(2-hydroxyethyl)-p-phenylenediamine [1] | long term storage stability [1] | sensitization potential compared with p-phenylenediamine (Sensitization potential) | sensitization potential [2]
CC(O)c1cc(N)ccc1N (stereo not drawn) [1-(2,5-Diaminophenyl)ethanol, 1-(2,5-diaminophenyl)ethanol] | excellent | significantly more stable | excellent | much less susceptible to cause sensitization | –
Nc1ccc(N)c(CCO)c1 [2-(2-hydroxyethyl)-p-phenylenediamine, reference compound] | – | – | not sufficiently stable | – | –
Nc1ccc(N)cc1 [p-phenylenediamine] | – | – | – | – | strong
